Source: patent US6518314B1, “Pharmaceutical agents that impede the initiation and progression of primary and secondary DMS disruptions” (Nymox Corporation, priority 1997, dated 2003)

Test system: human DMS
Assay: In vivo assay: intracerebral injection of human DMS plus compound into rats, histology of DMS disruption site
Conditions: for Mean Volume Disrupted DMS: mean tissue volume of transformed redistributed disrupted DMS protein per individual DMS, rats, about 100,000 human DMS and compound at 10^−5M; for Persistence of Inflamm. Reaction: ratio of number of acute inflammatory cells (excluding macrophages) per DMS at the DMS disruption site; for Persistence of Inflamm. Reaction / Digestion and removal of DMS: compared to control (ii) normalized to 1.0, compound at 10^−5M; for Digestion and removal of DMS: ratio of number of macrophages containing DMS material per DMS at the DMS disruption site

Compound | Mean Volume Disrupted DMS | Persistence of Inflamm. Reaction | Digestion and removal of DMS
CC(Cc1ccccc1)N1CCN(C(c2ccccc2)c2ccccc2)CC1 (racemic) [Compound 1, (±)-1-(1-Phenylisopropyl)-4-(diphenylmethyl)piperazine] | 1250 μ^3 | <0.01 | >10
Clc1ccc2c(c1)C(N1CCNCC1)=Nc1ccccc1O2 [Amoxepine] | 1.36 × 10^5 μ^3 | 1.1 | 1.0
CN1[C@@H]2CC[C@H]1C[C@@H](OC(=O)C(CO)c1ccccc1)C2 (stereo partly drawn) [Atropine] | – | 1.0 | 1.0
CC(C)C[C@H]1C(=O)N2CCC[C@H]2[C@]2(O)O[C@](NC(=O)[C@@H]3C=C4c5cccc6[nH]c(Br)c(c56)C[C@H]4N(C)C3)(C(C)C)C(=O)N12 [Bromocriptine] | 1.04 × 10^5 μ^3 | 1.0 | 1.0
c1ccc(C(OCCOC(c2ccccc2)c2ccccc2)c2ccccc2)cc1 [Compound 2, 1,2-Bis(diphenylmethoxy)ethane] | 560 μ^3 | <0.01 | >10
Clc1ccc(C(OCCOC(c2ccccc2)c2ccc(Cl)cc2)c2ccccc2)cc1 (stereo not drawn) [Compound 4, 1,2-Bis(4chlorophenylphenylmethoxy)ethane] | 580 μ^3 | <0.01 | >10
FC(F)(F)c1ccc(C(OCCOC(c2ccccc2)c2ccc(C(F)(F)F)cc2)c2ccccc2)cc1 (stereo not drawn) [Compound 5, 1,2-Bis(4-trifluoromethylphenylphenylmethoxy)ethane] | 940 μ^3 | <0.01 | >10
Cc1ccccc1C(OCCOC(c1ccccc1)c1ccccc1C)c1ccccc1 (stereo not drawn) [Compound 6, 1,2-Bis(2-methylphenylphenylmethoxy)ethane] | 940 μ^3 | <0.01 | >10
CN(CCC=C1c2ccccc2CCc2ccccc21)CCOC(c1ccccc1)c1ccccc1 [Compound 9, 3-(10,11-Dihydro-5H-dibenzo[a,d]cyclohepten-5-ylidene-N-methyl-N-[2-(diphenylmethoxy)ethyl)]-1-propaneamine] | 482 μ^3 | <0.01 | >10
CN(CCC=C1c2ccccc2CCc2ccccc21)CCOC(c1ccccc1)c1ccc(Cl)cc1 (stereo not drawn) [Compound 10, 3-(10,11-Dihydro-5H-dibenzo[a,d]cyclohepten-5-ylidene-N-methyl-N-[2-(4-chlorophenylphenylmethoxy)ethyl)]-1-propaneamine] | 460 μ^3 | <0.01 | >10
COC(=O)C1=C(C)N(CCOC(c2ccccc2)c2ccccc2)C(C)=C(C(=O)OC)C1c1ccccc1 [Compound 11] | 1260 μ^3 | <0.01 | >10
CC(COc1ccc(/C(=C/c2ccccc2)c2ccccc2)cc1)N1CCN(C(c2ccccc2)c2ccccc2)CC1 (stereo not drawn) [Compound 12] | 740 μ^3 | <0.01 | >10
Cn1cnc2c1c(=O)n(CCOC(c1ccccc1)c1ccccc1)c(=O)n2C [Compound 13] | 1625 μ^3 | <0.01 | >10
Cn1cnc2c1c(=O)n(CCOC(c1ccccc1)c1ccc(Cl)cc1)c(=O)n2C (stereo not drawn) [Compound 14] | 1625 μ^3 | <0.01 | >10
CN1C(=O)CN=C(c2ccccc2)c2cc(Cl)ccc21 [Diazepam] | 6.5 × 10^4 μ^3 | 1.1 | 1.0
CC[N+](C)(C)c1cccc(O)c1 [Edrophonium Chloride] | – | 1.0 | 1.0
C[C@@H](CO)NC(=O)[C@@H]1C=C2c3cccc4[nH]cc(c34)C[C@H]2N(C)C1 [Ergonovine] | 5.2 × 10^4 μ^3 | 1.0 | 1.0
CN1C[C@H](C(=O)N[C@]2(C)O[C@@]3(O)[C@@H]4CCCN4C(=O)[C@H](Cc4ccccc4)N3C2=O)C=C2c3cccc4[nH]cc(c34)C[C@H]21 [Ergotamine] | 5.8 × 10^4 μ^3 | 1.0 | 1.0
CN(C)CCCN1c2ccccc2CCc2ccccc21 [Imipramine] | 1.38 × 10^5 μ^3 | 1.0 | 1.0
O=C1Nc2ccc(Cl)cc2C(c2ccccc2Cl)=NC1O (stereo not drawn) [Lorazepam] | 8.2 × 10^4 μ^3 | 1.1 | 1.0
CCOC(=O)C1(c2ccccc2)CCN(C)CC1 [Meperidine] | 2.1 × 10^5 μ^3 | 1.0 | 1.0
COC(=O)C(c1ccccc1)C1CCCCN1 (stereo not drawn) [Methylphenidate] | 5.8 × 10^4 μ^3 | 1.1 | 1.01
CN(C)C(=O)Oc1cccc([N+](C)(C)C)c1 [Neostigmine] | 1.4 × 10^5 μ^3 | 1.1 | 1.0
O=C1Nc2ccc(Cl)cc2C(c2ccccc2)=NC1O (stereo not drawn) [Oxazepam] | 6.8 × 10^4 μ^3 | 1.1 | 1.0
CCCN1C[C@H](CSC)C[C@@H]2c3cccc4[nH]cc(c34)C[C@H]21 [Pergolide] | 1.2 × 10^5 μ^3 | 1.1 | 1.0
CNC(=O)Oc1ccc2c(c1)[C@]1(C)CCN(C)[C@@H]1N2C [Physostigmine] | 1.1 × 10^5 μ^3 | 1.0 | 1.0
CC[C@@H]1C(=O)OC[C@@H]1Cc1cncn1C [Pilocarpine] | 1.7 × 10^5 μ^3 | 1.1 | 1.0
CN(C)C(=O)Oc1ccc[n+](C)c1 [Pyridostigmine bromide] | – | 1.1 | 1.0
C#CCN(C)[C@H](C)Cc1ccccc1 [Selegiline] | 1.3 × 10^5 μ^3 | 1.0 | 1.0
Nc1c2c(nc3ccccc13)CCCC2 [Tacrine] | 1.4 × 10^5 μ^3 | 1.1 | 1.0
